Reference: publication PMC3188286 (Journal of Medicinal Chemistry, 2011)
One block for each compound: values may come before it.

Experiments:
T. brucei TryR [1] = molecular target: T1, T. brucei TryR (Trypanosoma brucei brucei, UniProt P39051); assay: TryR enzyme assay; format: biochemical, Trypanosoma brucei brucei strain S427; details: for improvement in TryR potency with respect to ester 1c: vs 1c IC50 9.4 μM; for ligand efficiency: from T. brucei TryR IC50; for fold less active than 9a against TryR: vs 9a
T. brucei TryR [2] = molecular target: T1, T. brucei TryR; assay: Mode of inhibition studies; format: biochemical; details: for mode of inhibition: with respect to trypanothione disulfide
[3] = tested on: bloodstream form T. brucei brucei; assay: Resazurin fluorescence-based cell viability assay, T. brucei; design: species or system Trypanosoma brucei brucei
[4] = Resazurin viability counter-screen, MRC5 cells; format: cell-based; details: human, MRC-5 cells

T1 sequence (P39051 whole entry): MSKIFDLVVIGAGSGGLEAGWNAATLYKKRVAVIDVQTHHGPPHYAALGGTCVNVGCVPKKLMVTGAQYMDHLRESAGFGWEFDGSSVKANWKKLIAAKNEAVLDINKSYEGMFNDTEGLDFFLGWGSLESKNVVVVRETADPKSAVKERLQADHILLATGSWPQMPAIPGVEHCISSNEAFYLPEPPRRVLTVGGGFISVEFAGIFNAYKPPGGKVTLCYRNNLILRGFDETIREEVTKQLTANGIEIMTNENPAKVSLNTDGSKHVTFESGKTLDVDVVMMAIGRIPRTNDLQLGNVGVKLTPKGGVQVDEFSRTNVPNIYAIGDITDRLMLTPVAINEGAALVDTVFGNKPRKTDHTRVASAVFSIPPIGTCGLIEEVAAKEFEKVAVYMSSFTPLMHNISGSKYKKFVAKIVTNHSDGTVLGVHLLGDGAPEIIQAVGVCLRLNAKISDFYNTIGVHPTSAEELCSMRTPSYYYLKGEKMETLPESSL

fold more potent against TryR than C6-phenyl analogue 16a (T. brucei TryR [1]): 10 fold
Structure (SMILES): CC1=Nc2ccc(Br)cc2C(c2ccccc2)N1CCN1CCCCC1 (stereo not shown) [15c, 6-bromo-2-methyl-4-phenyl-3-(2-(piperidin-1-yl)ethyl)-3,4-dihydroquinazoline]

fold more potent against TryR than other C6-aryls (16a,b,e,f) (T. brucei TryR [1]): 5- to 10 fold
Structure (SMILES): CC1=Nc2ccc(-c3ccsc3)cc2C(c2ccccc2)N1CCN1CCCCC1 (stereo not shown) [16d]

improvement in TryR potency with respect to ester 1c (T. brucei TryR [1]): 11 fold
mode of inhibition (T. brucei TryR [2]): mixed mode of inhibition
Structure (SMILES): CC1=Nc2ccc(Cl)cc2C(c2ccccc2)N1CCNC(=O)c1ccco1 (stereo not shown) [11e]

fold less active than 9a against TryR (T. brucei TryR [1]): 15 fold
Structure (SMILES): COc1cccc(C2c3cc(Cl)ccc3N=C(C)N2CCN2CCCCC2)c1 (stereo not shown) [29d]

ligand efficiency (T. brucei TryR [1]): > 0.3 kcal mol^–1 per non-H atom
improvement in TryR potency cf. 9e (T. brucei TryR [1]; vs 9e IC50 1.0 μM): 4 fold
TryR Ki′ (T. brucei TryR [2]; mixed inhibition, enzyme–T[S]2 complex): 1460 nM
mode of inhibition (T. brucei TryR [2]): linear mixed
Structure (SMILES): CC1=Nc2ccc(Cl)cc2C(c2ccc(C)cc2)N1CCCN(C)C (stereo not shown) [29a, 3-(6-Chloro-2-methyl-4-p-tolylquinazolin-3(4H)-yl)-N,N-dimethylpropan-1-amine]

fold more potent against TryR than other C6-aryls (16a,b,e,f) (T. brucei TryR [1]): 5- to 10 fold
Structure (SMILES): CC1=Nc2ccc(-c3ccco3)cc2C(c2ccccc2)N1CCN1CCCCC1 (stereo not shown) [16c]

mode of inhibition (T. brucei TryR [2]): mixed mode of inhibition
Structure (SMILES): CC1=Nc2ccc(Cl)cc2C(c2ccccc2)N1CCN1CCN(C(=O)CN(C)C)CC1 (stereo not shown) [13h]

fold less active than 9a against TryR (T. brucei TryR [1]): 15 fold
Structure (SMILES): CC1=Nc2ccc(Cl)cc2C(C2CCCCC2)N1CCN1CCCCC1 (stereo not shown) [29f]

ligand efficiency (T. brucei TryR [1]): 0.31 kcal mol^–1 per non-H atom
improvement in TryR potency with respect to ester 1c (T. brucei TryR [1]): 10 fold
Structure (SMILES): CC1=Nc2ccc(Cl)cc2C(c2ccccc2)N1CCN1CCN(C)CC1 (stereo not shown) [9c]

ligand efficiency (T. brucei TryR [1]): 0.27 kcal mol^–1 per non-H atom
improvement in TryR potency with respect to ester 1c (T. brucei TryR [1]): 22 fold
Structure (SMILES): CC1=Nc2ccc(Cl)cc2C(c2ccccc2)N1CCN1CCN(C(=O)c2ccco2)CC1 (stereo not shown) [13e]

The remaining lines, values behind:

Structure (SMILES): COC(=O)CN1C(C)=Nc2ccc(Br)cc2C1c1ccccc1 (stereo not shown) [1a]
difference in activity between T. cruzi and T. brucei TryR (T. brucei TryR [1]): < 3 fold
Ki (T. brucei TryR [2]): 920 ± 60 nM
mode of inhibition (T. brucei TryR [2]): linear competitive inhibitor
reduction in potency between biochemical (TryR IC50) and cell assay (T. brucei EC50) [3]: > 5 fold
EC50 [4]: > 50000 nM

Structure (SMILES): CCN1C(C)=Nc2ccc(Cl)cc2C1c1ccccc1 (stereo not shown) [6k]
ligand efficiency (T. brucei TryR [1]): > 0.3 kcal mol^–1 per non-H atom

Structure (SMILES): CC1=Nc2ccc(Cl)cc2C(c2ccccc2)N1Cc1ccccc1F (stereo not shown) [6d]
improvement in TryR potency with respect to ester 1c (T. brucei TryR [1]): 10 fold

Structure (SMILES): CC1=Nc2ccc(Cl)cc2C(c2ccccc2)N1Cc1cccc(N(C)C)c1 (stereo not shown) [6g]
improvement in TryR potency with respect to ester 1c (T. brucei TryR [1]): 10 fold

Structure (SMILES): N=C(N)c1ccc(OCCCCCOc2ccc(C(=N)N)cc2)cc1 [Pentamidine, pentamidine, reference compound]
EC50 ([3]; Trypanosoma brucei, read-out: T. brucei EC50 (positive control)): 5 nM

Structure (SMILES): CC1=Nc2ccc(Cl)cc2C(c2ccccc2)N1Cc1ccccc1 (racemic) [6a, (R/S)-3-Benzyl-6-chloro-2-methyl-4-phenyl-3,4-dihydroquinazoline]
improvement in TryR potency with respect to ester 1c (T. brucei TryR [1]): 10 fold

Structure (SMILES): CC1=Nc2ccc(Cl)cc2C(c2ccccc2)N1CCN1CCCCC1 (racemic) [9a, (R/S)-6-Chloro-2-methyl-4-phenyl-3-(2-(piperidin-1-yl)ethyl)-3,4-dihydroquinazoline]
selectivity (MRC5 EC50/T. brucei EC50) ([3]; ratio, fold): 11

Structure (SMILES): CC1=Nc2ccc(-c3ccccc3)cc2C(c2ccccc2)N1CCN1CCCCC1 (racemic) [16a, (R/S)-2-Methyl-4,6-diphenyl-3-(2-(piperidin-1-yl)ethyl)-3,4-dihydroquinazoline]
fold more potent against T. brucei cells than against TryR [3]: 10 fold

Structure (SMILES): COC(=O)CN1C(C)=Nc2ccc(C)cc2C1c1ccccc1 (stereo not shown) [1b]
difference in activity between T. cruzi and T. brucei TryR (T. brucei TryR [1]): < 3 fold

Structure (SMILES): CC1=Nc2ccccc2C(c2ccccc2)N1CCN1CCCCC1 (stereo not shown) [15b]
fold less potent against T. brucei than C6-halogen analogues 9a, 15c, 15d [3]: ~10 fold

Structure (SMILES): COC(=O)CN1C(C)=Nc2ccc(Br)cc2C1c1ccccc1Cl (stereo not shown) [1d]
TryR IC50 (T. brucei TryR [1]; recombinant T. brucei TryR, mean of at least two replicates): inactive
